Test results published in ChEMBL document CHEMBL4825684, “Design, synthesis and biological evaluation of N-anthraniloyl tryptamine derivatives as pleiotropic molecules for the therapy of malignant glioma” (Eur J Med Chem, 2021).
Active and inactive are the calls of the source. The rule behind the calls is not given here.

Assays:
[1] = tested on: C6; test: Antitumor activity against rat C6 cells inoculated orthotopic Sprague-Dawley rat model assessed as tumor growth inhibition at 50 mg/kg, ip twice a day treated 3 days after tumor cell injection measured for 13 days after tumor implantation; assay type: functional; settings: 72 h, time 3 day, read-out: TGI
[2] = Plasma concentration in Sprague-Dawley rat at 60 mg/kg, ip measured after 2 hrs by LC-MS analysis; assay type: ADME, organism-based
[3] = tested on: U-251; test: Anti-invasion activity against human U-251 cells assessed as inhibition of invasion incubated for 24 hrs by matrigel trans well plate assay; assay type: functional, cell-based; settings: dose 1-4 µM
[4] = tested on: U-87 MG; test: Induction of apoptosis in human U-87 MG cells assessed as early apoptotic cells at 4 uM incubated for 48 hrs by […] double staining based flow cytometry assay (reference value: 0.63%); assay type: functional, U-87MG ATCC
[5] = tested on: U-251; test: Cell cycle arrest in human U-251 cells assessed as accumulation at G2/M phase at 8 uM incubated for 48 hrs by PI staining based flow cytometry assay (reference value: 11.9%); assay type: functional
[6] = tested on: C6; test: Antitumor activity against rat C6 cells inoculated orthotopic Sprague-Dawley rat model assessed as increase in E-cadherin in tumor tissue at 50 mg/kg, ip twice a day treated 3 days after tumor cell injection measured for 13 days after tumor implantation by Western blot analysis; assay type: functional, organism-based; settings: time 3.0 day
[7] = tested on: U-251; test: Antiproliferative activity against human U-251 cells assessed as growth inhibition incubated for 72 hrs by CCK-8 assay; assay type: functional, cell-based; settings: U-251, 72 h
[8] = Tmax in Sprague-Dawley rat at 60 mg/kg, ip measured up to 24 hrs by LC-MS analysis; assay type: ADME, organism-based; settings: in vivo
[9] = tested on: U-251; test: Induction of apoptosis in human U-251 cells assessed as late apoptotic cells at 8 uM incubated for 48 hrs by […] double staining based flow cytometry assay (reference value: 1.39%); assay type: functional
[10] = tested on: U-87 MG; test: Induction of apoptosis in human U-87 MG cells assessed as viable cells at 4 uM incubated for 48 hrs by Annexin VIM double staining based flow cytometry assay (reference value: 97.8%); assay type: functional, U-87MG ATCC; settings: read-out: Activity
[11] = tested on: U-251; test: Induction of apoptosis in human U-251 cells assessed as late apoptotic cells at 4 uM incubated for 48 hrs by […] double staining based flow cytometry assay (reference value: 1.39%); assay type: functional
[12] = tested on: U-87 MG; test: Antiproliferative activity against human U-87 MG cells assessed as colony formation ratio at 4 uM measured after 24 hrs by plate clone formation assay relative to control; assay type: functional, U-87MG ATCC
[13] = tested on: U-251; test: Induction of apoptosis in human U-251 cells assessed as late apoptotic cells at 2 uM incubated for 48 hrs by […] double staining based flow cytometry assay (reference value: 1.39%); assay type: functional
[14] = tested on: C6; test: Antitumor activity against rat C6 cells inoculated orthotopic Sprague-Dawley rat model assessed as decrease in p-STAT3 in tumor tissue at 50 mg/kg, ip twice a day treated 3 days after tumor cell injection measured for 13 days after tumor implantation by Western blot analysis; assay type: functional, organism-based; settings: time 3.0 day
[15] = tested on: U-251; test: Induction of apoptosis in human U-251 cells assessed as increase in ROS generation at 1 to 4 uM incubated for 48 hrs […] relative to control; assay type: functional, cell-based; settings: dose 1-4 µM

## COc1cc(Nc2ccccc2C(=O)NCCc2c[nH]c3ccccc23)cc(OC)c1OC
[1]
  inhibition in vivo at 50 mg/kg: 66%
[2]
  concentration at 2 h: 520 ng/mL
[3]
  Activity: Active
[4]
  Activity: 6.09%
[5]
  Activity: 63.7%
[6]
  Activity: Active
[7]
  IC50: 1870 nM
[8]
  Tmax: 25.2 min
[9]
  Activity: 26.2%
[10]
  viability at 4 µM: 88.5%
[11]
  Activity: 21.8%
[12]
  Activity: 0%
[13]
  Activity: 17.4%
[14]
  Activity: Active
[15]
  Activity: Active
